Data as given in ChEMBL document CHEMBL4382233, “Discovery of novel arylethenesulfonyl fluorides as potential candidates against methicillin-resistant of Staphylococcus aureus (MRSA) for overcoming multidrug resistance of bacterial infections” (2019).
≈ marks a conversion by molar mass, not a printed value.

Key:
Format in all cases: functional
[1] = tested on: Staphylococcus haemolyticus; experiment: Antibacterial activity against methicillin-resistant Staphylococcus haemolyticus assessed as zone of inhibition at 50 ug/mL after 24 hrs by agar disc diffusion method; settings: read-out: IZ
[2] = tested on: Staphylococcus haemolyticus; experiment: Antibacterial activity against methicillin-resistant Staphylococcus haemolyticus assessed as zone of inhibition at 800 ng/mL after 24 hrs by agar disc diffusion method; settings: read-out: IZ
[3] = tested on: Staphylococcus epidermidis; experiment: Antibacterial activity against methicillin-resistant Staphylococcus epidermidis after overnight incubation by micro broth dilution analysis
Staphylococcus aureus [4] = experiment: Antibacterial activity against methicillin-resistant Staphylococcus aureus after overnight incubation by micro broth dilution analysis
[5] = tested on: Staphylococcus haemolyticus; experiment: Antibacterial activity against methicillin-resistant Staphylococcus haemolyticus after overnight incubation by micro broth dilution analysis
[6] = tested on: Staphylococcus epidermidis; experiment: Antibacterial activity against methicillin-resistant Staphylococcus epidermidis assessed as zone of inhibition at 20 ug/mL after 24 hrs by agar disc diffusion method; settings: read-out: IZ
[7] = tested on: Staphylococcus haemolyticus; experiment: Antibacterial activity against methicillin-resistant Staphylococcus haemolyticus assessed as zone of inhibition at 200 ng/mL after 24 hrs by agar disc diffusion method; settings: read-out: IZ
Staphylococcus aureus [8] = experiment: Antibacterial activity against methicillin-resistant Staphylococcus aureus assessed as zone of inhibition at 50 ug/mL after 24 hrs by agar disc diffusion method; settings: read-out: IZ
[9] = tested on: Staphylococcus haemolyticus; experiment: Antibacterial activity against methicillin-resistant Staphylococcus haemolyticus assessed as zone of inhibition at 400 ng/mL after 24 hrs by agar disc diffusion method; settings: read-out: IZ
[10] = tested on: Staphylococcus epidermidis; experiment: Antibacterial activity against methicillin-resistant Staphylococcus epidermidis assessed as zone of inhibition at 200 ng/mL after 24 hrs by agar disc diffusion method; settings: read-out: IZ
Staphylococcus aureus [11] = experiment: Antibacterial activity against methicillin-resistant Staphylococcus aureus assessed as zone of inhibition at 400 ng/mL after 24 hrs by agar disc diffusion method; settings: read-out: IZ
Staphylococcus aureus [12] = experiment: Antibacterial activity against methicillin-resistant Staphylococcus aureus assessed as zone of inhibition at 800 ng/mL after 24 hrs by agar disc diffusion method; settings: read-out: IZ
[13] = tested on: Staphylococcus epidermidis; experiment: Antibacterial activity against methicillin-resistant Staphylococcus epidermidis assessed as zone of inhibition at 400 ng/mL after 24 hrs by agar disc diffusion method; settings: read-out: IZ
Staphylococcus aureus [14] = experiment: Antibacterial activity against methicillin-resistant Staphylococcus aureus assessed as zone of inhibition at 200 ng/mL after 24 hrs by agar disc diffusion method; settings: read-out: IZ
[15] = tested on: Staphylococcus epidermidis; experiment: Antibacterial activity against methicillin-resistant Staphylococcus epidermidis assessed as zone of inhibition at 800 ng/mL after 24 hrs by agar disc diffusion method; settings: read-out: IZ

SMILES	zone of inhibition at 50 µg/mL [1]	zone of inhibition at 0.8 µg/mL [2]	MIC99 [3]	MIC99 (Staphylococcus aureus [4])	MIC99 [5]	zone of inhibition at 20 µg/mL [6]	zone of inhibition at 0.2 µg/mL [7]	zone of inhibition at 50 µg/mL (Staphylococcus aureus [8])	zone of inhibition at 0.4 µg/mL [9]	zone of inhibition at 0.2 µg/mL [10]	zone of inhibition at 0.4 µg/mL (Staphylococcus aureus [11])	zone of inhibition at 0.8 µg/mL (Staphylococcus aureus [12])	zone of inhibition at 0.4 µg/mL [13]	zone of inhibition at 0.2 µg/mL (Staphylococcus aureus [14])	zone of inhibition at 0.8 µg/mL [15]
O=[N+]([O-])c1ccccc1/C=C/C=C/S(=O)(=O)F	6.5 mm	5.2 mm	44 µg/mL (≈ 171 µM)	47 µg/mL (≈ 183 µM)	16.2 µg/mL (≈ 62.8 µM)	6.2 mm	3.2 mm	5.5 mm	4.2 mm						
CC(=O)c1ccccc1/C=C/S(=O)(=O)F	4.1 mm		0.816 µg/mL (≈ 3.58 µM)	16.1 µg/mL (≈ 70.7 µM)	50.2 µg/mL (≈ 220 µM)	10.2 mm		8.2 mm		3.3 mm	4.1 mm	5.4 mm	4.2 mm	3.5 mm	10.5 mm
O=S(=O)(F)/C=C/c1cccc(Br)c1	8.5 mm	52 mm	58.2 µg/mL (≈ 219 µM)	0.813 µg/mL (≈ 3.07 µM)	16.1 µg/mL (≈ 60.8 µM)	4.5 mm	32 mm	17.1 mm	42 mm		10.1 mm	12 mm		5.1 mm	
CC(C)c1cccc(/C=C/S(=O)(=O)F)c1	4.2 mm		0.81 µg/mL (≈ 3.55 µM)	16.1 µg/mL (≈ 70.3 µM)	43 µg/mL (≈ 189 µM)	18 mm		20.1 mm		9.2 mm	3.5 mm	4.2 mm	12.2 mm	3.1 mm	15.1 mm
Cc1ccccc1/C=C/S(=O)(=O)F	5.4 mm		17.2 µg/mL (≈ 85.8 µM)	0.849 µg/mL (≈ 4.24 µM)	54.1 µg/mL (≈ 270 µM)	15.3 mm		15.4 mm		2.2 mm	5.1 mm	6.4 mm	3.4 mm	4.2 mm	4.5 mm
O=S(=O)(F)/C=C/c1ccc(C(F)(F)F)cc1	3.5 mm		0.812 µg/mL (≈ 3.19 µM)	0.815 µg/mL (≈ 3.21 µM)	60.2 µg/mL (≈ 237 µM)	12.1 mm		9.1 mm		9.1 mm	10.1 mm	15.1 mm	10.1 mm	6.2 mm	11.4 mm
CSc1ccc(/C=C/S(=O)(=O)F)cc1	8.2 mm	7.4 mm	0.835 µg/mL (≈ 3.59 µM)	41.1 µg/mL (≈ 177 µM)	0.838 µg/mL (≈ 3.61 µM)	6.4 mm	3.1 mm	6.2 mm	5.2 mm						
O=S(=O)(F)/C=C/c1cccc(I)c1	8.2 mm	3.2 mm	0.825 µg/mL (≈ 2.64 µM)	46 µg/mL (≈ 148 µM)	23.1 µg/mL (≈ 74.2 µM)	8.2 mm	0 mm	12.3 mm	0 mm	6.1 mm			7.1 mm		8.1 mm
O=Cc1cccc(/C=C/S(=O)(=O)F)c1	8.2 mm	6.1 mm	41.1 µg/mL (≈ 192 µM)	17.2 µg/mL (≈ 80.2 µM)	0.828 µg/mL (≈ 3.87 µM)	6.5 mm	2.2 mm	10.3 mm	5.1 mm		3.5 mm	4.2 mm		3.1 mm	
O=S(=O)(F)/C=C/c1cc(O)cc(O)c1	4.2 mm		0.846 µg/mL (≈ 3.88 µM)	17 µg/mL (≈ 78 µM)	49 µg/mL (≈ 225 µM)	9.3 mm		12.2 mm		3.1 mm	4.2 mm	4.5 mm	4.2 mm	3.5 mm	6.2 mm
CCOC(=O)/C=C/C=C/S(=O)(=O)F	7.5 mm	5.1 mm	47 µg/mL (≈ 226 µM)	40.3 µg/mL (≈ 193 µM)	56.1 µg/mL (≈ 269 µM)	8.2 mm	0 mm	4.1 mm	3.2 mm	3.3 mm			4.1 mm		3.1 mm
Cc1cccc(/C=C/S(=O)(=O)F)c1	12.2 mm	10.3 mm	57.2 µg/mL (≈ 286 µM)	0.844 µg/mL (≈ 4.22 µM)	0.812 µg/mL (≈ 4.06 µM)	3.5 mm	6.1 mm	10.1 mm	8.2 mm		5.2 mm	6.2 mm		4.3 mm	
O=S(=O)(F)/C=C/C=C/c1cccc(C(F)(F)F)c1	4.5 mm		0.822 µg/mL (≈ 2.93 µM)	44.1 µg/mL (≈ 157 µM)	55 µg/mL (≈ 196 µM)	8.5 mm		6.2 mm		6.2 mm			7.1 mm		8.5 mm
CC(=O)c1ccc(/C=C/S(=O)(=O)F)cc1	7.2 mm	6.1 mm	54.2 µg/mL (≈ 237 µM)	0.822 µg/mL (≈ 3.6 µM)	0.84 µg/mL (≈ 3.68 µM)	6.5 mm	3.3 mm	14.1 mm	5.2 mm		8.2 mm	10.2 mm		6.2 mm	
O=S(=O)(F)/C=C/C=C/c1cccc(F)c1	5.5 mm		0.82 µg/mL (≈ 3.56 µM)	48 µg/mL (≈ 209 µM)	50.1 µg/mL (≈ 218 µM)	8.3 mm		7.2 mm		4.2 mm			6.1 mm		8.3 mm
O=S(=O)(F)/C=C/c1cc(C(F)(F)F)cc(C(F)(F)F)c1	7.1 mm	4.2 mm	60.2 µg/mL (≈ 187 µM)	0.814 µg/mL (≈ 2.53 µM)	18.1 µg/mL (≈ 56.3 µM)	6.5 mm	0 mm	14.4 mm	3.1 mm		7.1 mm	10.3 mm		6.2 mm	
